We go through 2 compounds from patent publication US20260232715A1, “TREATMENT OF PANCREATIC CANCER” (CAN-FITE BIOPHARMA LTD., priority 2023, published 2026).

Assay [1] has as its system BxPC-3 cells. The experiment in a line: Presto Blue cell growth inhibition assay. The assay is classed as cell-based, human. The protocol: Cells (15×10^4/mL) were maintained in RPMI medium supplemented with 10% fetal bovine serum (FBS), […], 100 U/ml penicillin, and […] streptomycin solution at 37° C. in a 5% CO2 incubator. Cells were transferred to a freshly prepared medium twice weekly. For the tumor cell growth experiments, BxPC-3 cells (15×10^4/mL) were incubated in the culture medium with control, 5, 10, or 20 nM namodenoson in 96-well microtiter plates for 24 h at 37° C. in a 5% CO2 incubator, after which cell growth inhibition was determined using the Presto Blue assay (Thermo Fisher Scientific, Waltham, MA, USA) used as per the manufacturer's instructions. Experiments under the same conditions with 20 nM namodenoson were also conducted with and without 20 nM of the A3AR antagonist MRS1523 (diluted to the final concentration in RPMI medium).

In assay [2] the test system is BxPC-3 cells. Put plainly: BxPC-3 subcutaneous tumor growth in nude mice. The assay is classed as in vivo, nude Balb/C mice. The conditions noted are these: 10 μg/kg twice daily for 35 days (Day 22 to Day 57), by Day 57 from tumor inoculation. The protocol: Male nude Balb/C mice (Harlan Laboratories, Jerusalem, Israel), aged 2 months (mean weight, 25 g), received a subcutaneous flank injection of BxPC-3 cells (2.5×10^6). The mice were maintained on a standardized pelleted diet and supplied with tap water. […] Tumor width (W) and length (L) were measured twice weekly with a caliber, and tumor size was calculated (W^2×L/2).

Assay [3] concerns BxPC-3 cells. Put plainly: 3H-thymidine incorporation assay (cell growth). In kind it is cell-based. The settings on record: Homo sapiens, 48 h, read-out: percentage of growth inhibition of BxPC-3 cells. The method, then: Cells (15×10^4/mL) were maintained in RPMI medium supplemented with 10% fetal bovine serum (FBS), […], 100 U/ml penicillin, and […] streptomycin solution at 37° C. in a 5% CO2 incubator. Cells were transferred to a freshly prepared medium twice weekly. 3H-thymidine incorporation assay was used to evaluate cell growth. BxPC-3 cells (5,000 cells/well) were incubated (37° C.) with CF102 (namodenoson) in different concentrations: 0.01 nM, 0.1 nM and 1 nM in a 96-well plate for 48 h. Each well was pulsed with 1 μCi 3H-thymidine for the last 24 h. The cells were harvested, and the 3H-thymidine uptake was determined in an LKB liquid scintillation counter (LKB).
(Uptake of a labelled nucleoside into DNA is a usual measure of proliferation.)

The subject of assay [4] is BxPC-3 cells. The experiment in a line: Western blot analysis of regulatory protein expression. The settings on record: 20 nM namodenoson, 24 h, vs. control. The assay is classed as cell-based, human. The method, then: Western blot analyses were performed using the same culture conditions as the Presto Blue experiments in 10 cm plates with 20 nM namodenoson or control. After incubation for 24 h at 37° C. in a 5% CO2 incubator, the cell samples were rinsed with ice-cold PBS and transferred to ice-cold RIPA buffer with 1× protease and phosphatase inhibitor cocktail for 20 min. Cell debris was removed using centrifugation at 4° C. for 10 min, at 7500×g. The supernatant was utilized for the Western blot analyses. Protein concentrations were determined using the NanoDrop assay (ThermoFisher Scientific, Waltham, MA, USA). Equal amounts of the sample (50 μg) were separated by SDS-PAGE, using […] (Schleicher & Schuell, Keene, NH, USA). Membranes were blocked with 1% bovine serum albumin and incubated with the relevant primary antibody (dilution 1:1000) for 24 h at 4° C. Blots were then washed and incubated with the secondary antibody for 1 h at room temperature. Bands were recorded using BCIP/NBT color development kit (Promega, Madison, WI, USA).
On the technique in general: A western blot detects proteins with antibodies after separation by electrophoresis.

In general, inhibition refers to the drop in the measured response relative to a control, in per cent.

For the compound `CCCOC(=O)c1c(-c2ccccc2)nc(CC)c(C(=O)SCC)c1CCC` [MRS1523, reference compound], in the assay on BxPC-3 cells [1] (20 nM MRS1523 alone, 24 h), the “cell growth, % of the control” value is recorded as 100.8%+11.1 % of the control.

For the compound `CNC(=O)[C@H]1O[C@@H](n2cnc3c(NCc4cccc(I)c4)nc(Cl)nc32)[C@H](O)[C@@H]1O` [namodenoson, 2-chloro-N^6-(3-iodobenzyl)-adenosine-5′-N-methyl-uronamide], the “inhibition of tumor growth vs. control” value in the assay with BxPC-3 cells [2] is on record as 67.7%+15.2. Further, in the assay with BxPC-3 cells [1] (20 nM namodenoson alone, 24 h), the “cell growth, % of the control” value is on record as 45.0%+4.2 % of the control. Besides, the “cell growth, % of the control” value in the assay on BxPC-3 cells [1] (20 nM namodenoson plus 20 nM MRS1523, 24 h) is given as 81.1%+6.3 % of the control. The compound also gave an inhibition at 0.005 µM with BxPC-3 cells [1] (Homo sapiens, BXPC-3, 5 nM, 24 h, mean±SE) of 49.7%. Further, in the assay on BxPC-3 cells [1] (Homo sapiens, BXPC-3, 10 nM, 24 h, mean±SE), the inhibition at 0.01 µM came to 66.3%. For the same compound, 0.02 µM produced 82.7% inhibition in the assay on BxPC-3 cells [1] (Homo sapiens, BXPC-3, 20 nM, 24 h, mean±SE). Besides, the inhibition at 10 pM in the assay on BxPC-3 cells [3] (0.01 nM namodenoson) stood at 27.9%. Further, the inhibition at 0.0001 µM in the assay with BxPC-3 cells [3] (0.1 nM namodenoson) came to 53.7%. Moreover, the inhibition at 0.001 µM in the assay on BxPC-3 cells [3] (1 nM namodenoson) was 67.4%. Moreover, in the assay with BxPC-3 cells [4], the “A3AR protein expression level” value was “decrease”, the Bad expression result was “upregulated”, the Bax expression entry is “upregulated” and the GSK-3β expression entry was “upregulation”. In the assay with BxPC-3 cells [4], the NF-κB expression entry is “downregulated”, the PI3K expression result is recorded as “downregulated”, the “cyclin D1 expression level” value is listed as “decrease” and the p-Akt expression entry is given as “downregulated”. In addition, in the assay on BxPC-3 cells [4], the “pERK 1/2 expression level” value is reported as “decrease”, the “pMEK 1/2 expression level” value is “decrease”, the pRaf expression level result is “decrease” and the β-catenin expression level entry is “decrease”.
